This passage reports IC50 results from US20250136607A1 (REGOR PHARMACEUTICALS, INC., priority 2021, published 2025).

The assay has as its target Protein arginine deiminase 4 (PAD4) (Homo sapiens, UniProt Q9UM07). Briefly: PAD4 ammonia release assay. Format: biochemical. As to the method: 1) Compound preparation: The compounds were diluted to 80× final concentrations. 2) The compounds were transferred to a 384-well assay plate by Tecan. DMSO: 1.25%. 3) Preparation of 1×Assay buffer: 100 mM HEPES, PH=8.0, 2 mM CaCl2, 50 mM NaCl, 0.1 mM TCEP, 0.6 mg/ml BSA. 4) 2× enzyme working solution (PAD4:20 nM) was prepared with assay buffer, and 10 μL of the obtained working solution were added to the 384-well assay plates. 5) The plate was centrifuged at 1000 rpm for 1 min. 6) After the centrifuge, the plate was incubated at RT for 15 min. 7) 2×BAEE substrate mix (600 μM) was prepared with assay buffer and 10 μL of the obtained substrate mix were added to each well. 8) The plate was centrifuged at 1000 rpm for 1 min and then incubated at RT for 60 min. 9) 1.5× detection mix (DTT:4 mM, OPA:3 mM, EDTA: 30 mM) was prepared, and 10 μL of the mix were added to the plate. 10) The plate was centrifuged at 1000 rpm for 1 min and then incubated at RT for 120 min. 11) The 384-well plates were placed into the Envision (PerkinElmer) and the assay data were collected.
The percent (%) inhibition at each concentration of compound was calculated based on and relative to the signal in the HPE (50 μM ref. compound) and ZPE (1.25% DMSO) wells included within each assay plate. The HPE worked as 100% inhibition, and the ZPE worked as 0% inhibition. The concentrations and % inhibition values for tested compounds were plotted and the concentration of compound required for 50% inhibition (IC50) was determined with a Four-parameter logistic dose response equation. The endpoint value (IC50) for the reference compound was evaluated in each experiment as a quality control measure. If the endpoint value is within 3-fold of the expected value, then the experiment quality is deemed as acceptable. The results are provided in Table 1 below. ≤0.1 μM=“++++”; >0.1 and ≤0.5 μM=“+++”; >0.5 and ≤5.0 μM=“++”; >5.0 μM=“+”. “−”=not available.

Setting [1] is: PAD4 ammonia release assay, BAEE substrate, 60 min at RT, read-out: Average IC50 Abs.

Where two headings read alike, the source gives them in different places.

Protein arginine deiminase 4 (PAD4), sequence (Q9UM07 whole entry): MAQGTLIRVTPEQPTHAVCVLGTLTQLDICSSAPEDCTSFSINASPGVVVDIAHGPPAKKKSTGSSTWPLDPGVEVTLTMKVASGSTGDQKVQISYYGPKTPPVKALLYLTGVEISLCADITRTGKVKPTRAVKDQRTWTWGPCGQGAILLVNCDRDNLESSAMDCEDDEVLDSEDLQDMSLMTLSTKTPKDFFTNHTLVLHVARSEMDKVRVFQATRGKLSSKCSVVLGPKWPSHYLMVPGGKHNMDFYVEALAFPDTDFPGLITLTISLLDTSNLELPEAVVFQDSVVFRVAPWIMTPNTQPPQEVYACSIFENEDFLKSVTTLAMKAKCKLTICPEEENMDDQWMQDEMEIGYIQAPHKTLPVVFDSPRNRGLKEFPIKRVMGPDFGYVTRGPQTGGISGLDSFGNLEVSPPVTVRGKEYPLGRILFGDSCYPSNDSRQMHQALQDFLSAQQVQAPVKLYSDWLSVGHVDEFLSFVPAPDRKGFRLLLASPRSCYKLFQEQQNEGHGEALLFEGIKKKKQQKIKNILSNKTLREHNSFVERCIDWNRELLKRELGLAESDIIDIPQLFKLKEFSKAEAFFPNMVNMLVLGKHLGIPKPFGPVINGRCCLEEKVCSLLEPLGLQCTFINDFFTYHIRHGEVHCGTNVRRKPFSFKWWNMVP

In general, IC50 refers to the concentration that gives 50% inhibition. As for `COc1cc(C(=O)N2CC(F)(F)C3(CNC3)C2)cc2nc(-c3cc4cccc5c4n3CCN5CCCO)n(CC3CC3)c12` [Example 57, (1-(cyclopropylmethyl)-2-(1-(3-hydroxypropyl)-2,3-dihydro-1H-pyrrolo[1,2,3-de]quinoxalin-5-yl)-7-methoxy-1H-benzo[d]imidazol-5-yl)(8,8-difluoro-2,6-diazaspiro[3.4]octan-6-yl)methanone], the IC50 under setting [1] was above 5 µM.
The same measure, in the same setting: with `COc1cc(C(=O)N2CC[C@H](F)[C@H](N)C2)cc2nc(-c3cc4cccc5c4n3CCN5CCCO)n(CC3CC3)c12` [Example 58, ((3R,4S)-3-amino-4-fluoropiperidin-1-yl)(1-(cyclopropylmethyl)-2-(1-(3-hydroxypropyl)-2,3-dihydro-1H-pyrrolo[1,2,3-de]quinoxalin-5-yl)-7-methoxy-1H-benzo[d]imidazol-5-yl)methanone] the figure was 0.5 to 5 µM.
The same measure, in the same setting: with `COc1cc(C(=O)N2C[C@H](N)C3(CC3)C2)cc2nc(-c3cc4cccc5c4n3CCN5CCCO)n(CC3CC3)c12` [Example 60, (R)-(7-amino-5-azaspiro[2.4]heptan-5-yl)(1-(cyclopropylmethyl)-2-(1-(3-hydroxypropyl)-2,3-dihydro-1H-pyrrolo[1,2,3-de]quinoxalin-5-yl)-7-methoxy-1H-benzo[d]imidazol-5-yl)methanone] the figure was above 5 µM; with `COc1cc(C(=O)N2C[C@@H](N)C3(CC3)C2)cc2nc(-c3cc4cccc5c4n3CCN5CCCO)n(CC3CC3)c12` [Example 61, (S)-(7-amino-5-azaspiro[2.4]heptan-5-yl)(1-(cyclopropylmethyl)-2-(1-(3-hydroxypropyl)-2,3-dihydro-1H-pyrrolo[1,2,3-de]quinoxalin-5-yl)-7-methoxy-1H-benzo[d]imidazol-5-yl)methanone], above 5 µM; with `COc1cc(-n2cc3c(n2)CCC(N)C3)cc2nc(-c3cc4cccc5c4n3CCN5CCCO)n(C)c12` (centres unmarked) [Example 62, 3-(5-(5-(5-amino-4,5,6,7-tetrahydro-2H-indazol-2-yl)-7-methoxy-1-methyl-1H-benzo[d]imidazol-2-yl)-2,3-dihydro-1H-pyrrolo[1,2,3-de]quinoxalin-1-yl)propan-1-ol], above 5 µM.
The same measure, in the same setting: the figure for `COc1cc(C(=O)N2C[C@H](N)C[C@@H](F)C2)cc2nc(-c3cc4cccc5c4n3CCN5CCCO)n(OC)c12` [Example 63, ((3R,5R)-3-amino-5-fluoropiperidin-1-yl)(2-(1-(3-hydroxypropyl)-2,3-dihydro-1H-pyrrolo[1,2,3-de]quinoxalin-5-yl)-1,7-dimethoxy-1H-benzo[d]imidazol-5-yl)methanone] is above 5 µM.
As for `COc1cc(C(=O)N2CCC[C@@H](N)C2)cc2nc(-c3cc4cccc5c4n3C(C)CN5)n(C)c12` (stereo partly drawn) [Example 65, ((R)-3-aminopiperidin-1-yl)(7-methoxy-1-methyl-2-(3-methyl-2,3-dihydro-1H-pyrrolo[1,2,3-de]quinoxalin-5-yl)-1H-benzo[d]imidazol-5-yl)methanone], the IC50 (PAD4 activity comparison, read-out: PAD4 Ammonia assay IC50) was determined as 2.6 µM and the IC50 under setting [1] lay in the range of 0.5 to 5 µM.
For `CCn1c(-c2cc3cccc4c3n2C(C)CN4CCCO)nc2cc(C(=O)N3C[C@H](N)C[C@@H](F)C3)cc(OC)c21` (stereo partly drawn) [Example 66, ((3R,5R)-3-amino-5-fluoropiperidin-1-yl)(1-ethyl-2-(1-(3-hydroxypropyl)-3-methyl-2,3-dihydro-1H-pyrrolo[1,2,3-de]quinoxalin-5-yl)-7-methoxy-1H-benzo[d]imidazol-5-yl)methanone], the IC50 under setting [1] lay in the range of 0.5 to 5 µM.
On the same count and under the same terms, with `CCn1c(-c2cc3cccc4c3n2C(C)CN4CCCO)nc2cc(C(=O)N3C[C@H]4CC[C@@H]3[C@@H]4NC(=O)OC(C)(C)C)cc(OC)c21` (stereo partly drawn) [Example 67, tert-butyl ((1R,4R,7R)-2-(1-ethyl-2-(1-(3-hydroxypropyl)-3-methyl-2,3-dihydro-1H-pyrrolo[1,2,3-de]quinoxalin-5-yl)-7-methoxy-1H-benzo[d]imidazole-5-carbonyl)-2-azabicyclo[2.2.1]heptan-7-yl)carbamate] the figure was above 5 µM.
Same read-out and setting: with `CC[C@@H]1CN(CCCO)c2cccc3cc(-c4nc5cc(C(=O)N6C[C@H]7CC[C@@H]6[C@@H]7N)cc(F)c5n4C)n1c23` [Example 70, ((1R,4R,7R)-7-amino-2-azabicyclo[2.2.1]heptan-2-yl)(2-((R)-3-ethyl-1-(3-hydroxypropyl)-2,3-dihydro-1H-pyrrolo[1,2,3-de]quinoxalin-5-yl)-7-fluoro-1-methyl-1H-benzo[d]imidazol-5-yl)methanone] the figure was above 5 µM; with `CC[C@@H]1CNc2cccc3cc(-c4nc5cc(C(=O)N6C[C@H]7CC[C@@H]6[C@@H]7N)cc(F)c5n4C)n1c23` [Example 73, ((1R,4R,7R)-7-amino-2-azabicyclo[2.2.1]heptan-2-yl)(2-((R)-3-ethyl-2,3-dihydro-1H-pyrrolo[1,2,3-de]quinoxalin-5-yl)-7-fluoro-1-methyl-1H-benzo[d]imidazol-5-yl)methanone], above 5 µM; with `CCC1CN(CCCO)c2cccc3cc(-c4nc5cc(C(=O)N6C[C@H]7CC[C@@H]6[C@@H]7N)cc(F)c5n4CC4CC4)n1c23` (stereo partly drawn) [Example 77, ((1R,4R,7R)-7-amino-2-azabicyclo[2.2.1]heptan-2-yl)(1-(cyclopropylmethyl)-2-(3-ethyl-1-(3-hydroxypropyl)-2,3-dihydro-1H-pyrrolo[1,2,3-de]quinoxalin-5-yl)-7-fluoro-1H-benzo[d]imidazol-5-yl)methanone], 0.1 to 0.5 µM.
On the same count and under the same terms, the figure for `CCC1CN(CCCO)c2cccc3cc(-c4nc5cc(C(=O)N6C[C@H]7CC[C@@H]6[C@@H]7N)c(F)c(F)c5n4C)n1c23` (stereo partly drawn) [Example 78, ((1R,4R,7R)-7-amino-2-azabicyclo[2.2.1]heptan-2-yl)(2-(3-ethyl-1-(3-hydroxypropyl)-2,3-dihydro-1H-pyrrolo[1,2,3-de]quinoxalin-5-yl)-6,7-difluoro-1-methyl-1H-benzo[d]imidazol-5-yl)methanone] is 0.5 to 5 µM; for `CCC1CN(CCO)c2cccc3cc(-c4nc5cc(C(=O)N6C[C@H](N)C[C@@H](F)C6)cc(OC)c5n4C)n1c23` (stereo partly drawn) [Example 79, ((3R,5R)-3-amino-5-fluoropiperidin-1-yl)(2-(3-ethyl-1-(2-hydroxyethyl)-2,3-dihydro-1H-pyrrolo[1,2,3-de]quinoxalin-5-yl)-7-methoxy-1-methyl-1H-benzo[d]imidazol-5-yl)methanone] it is 0.1 to 0.5 µM; for `CCC1CN(CCC(C)(C)O)c2cccc3cc(-c4nc5cc(C(=O)N6C[C@H](N)C[C@@H](F)C6)cc(OC)c5n4C)n1c23` (stereo partly drawn) [Example 83, ((3R,5R)-3-amino-5-fluoropiperidin-1-yl)(2-(3-ethyl-1-(3-hydroxy-3-methylbutyl)-2,3-dihydro-1H-pyrrolo[1,2,3-de]quinoxalin-5-yl)-7-methoxy-1-methyl-1H-benzo[d]imidazol-5-yl)methanon] it is 0.1 to 0.5 µM.
As to `CCC1CN(CCCOC)c2cccc3cc(-c4nc5cc(C(=O)N6C[C@H](N)C[C@@H](F)C6)cc(OC)c5n4C)n1c23` (stereo partly drawn) [Example 84, ((3R,5R)-3-amino-5-fluoropiperidin-1-yl)(2-(3-ethyl-1-(3-methoxypropyl)-2,3-dihydro-1H-pyrrolo[1,2,3-de]quinoxalin-5-yl)-7-methoxy-1-methyl-1H-benzo[d]imidazol-5-yl)methanone], the IC50 under setting [1] was 0.1 to 0.5 µM.
